Results on two molecules are retold here after publication PMC11997881, “Comprehensive Characterization of Bruton’s Tyrosine Kinase Inhibitor Specificity, Potency, and Biological Effects: Insights into Covalent and Noncovalent Mechanistic Signatures” (ACS Pharmacology & Translational Science, 2025).

Each structure is given as a SMILES string.

In one data set the target is JNK1 (MAPK8) (Homo sapiens, UniProt P45983). Nature of the data set: scanMAX binding POC, JNK1. The following applies: 1 μM.
The target in data set [1] is T1, JAK3 (JH1 catalytic domain) (Homo sapiens, UniProt P52333).
T1 construct: The JAK3 POC is for its JH1 catalytic domain
Nature of the data set: scanMAX binding POC, JAK3. As to conditions: 1 μM.

The target of a further data set is ERBB4 (Homo sapiens, UniProt Q15303). Nature of the data set: scanMAX binding POC, ERBB4. As to conditions: 1 μM.
In data set [2] the target is T2, BTK (Homo sapiens, UniProt Q06187).
T2 construct: host or cells: transiently transfected HEK293 cells
Nature of the data set: scanMAX binding POC, BTK. As to conditions: 1 μM; zero POC = competition comparable to positive control. An excerpt: (§1) Comprehensive Characterization of Bruton’s Tyrosine Kinase Inhibitor Specificity, Potency, and
(§2) Biological Effects: Insights into Covalent and Non-Covalent Mechanistic Signatures
(§3) Antonia C. Darragh1, Andrew M. Hanna1, Justin H. Lipner2, Alastair J. King2, Nicole B. Servant1, Mirza Jahic1*
(§4) *To whom correspondence should be addressed: Mirza Jahic, e-mail address: Mirza.Jahic@discovery.eurofinsus.com
(§5) Supporting Table S1. Comparison of BTK inhibitor specificity to TEC family members. TEC family members are
(§6) Burton’s tyrosine kinase (BTK), tyrosine kinase expressed in hepatocellular carcinoma (TEC), bone marrow-
(§7) expressed kinase (BMX/ETK), and T cell-expressed kinase (TXK/RLK), and interleukin-2-inducible T cell kinase
(§8) A zero POC signifies that the compound

A further data set deals with T3, TEC (Homo sapiens, UniProt P42680).
T3 sequence (P42680 1-631): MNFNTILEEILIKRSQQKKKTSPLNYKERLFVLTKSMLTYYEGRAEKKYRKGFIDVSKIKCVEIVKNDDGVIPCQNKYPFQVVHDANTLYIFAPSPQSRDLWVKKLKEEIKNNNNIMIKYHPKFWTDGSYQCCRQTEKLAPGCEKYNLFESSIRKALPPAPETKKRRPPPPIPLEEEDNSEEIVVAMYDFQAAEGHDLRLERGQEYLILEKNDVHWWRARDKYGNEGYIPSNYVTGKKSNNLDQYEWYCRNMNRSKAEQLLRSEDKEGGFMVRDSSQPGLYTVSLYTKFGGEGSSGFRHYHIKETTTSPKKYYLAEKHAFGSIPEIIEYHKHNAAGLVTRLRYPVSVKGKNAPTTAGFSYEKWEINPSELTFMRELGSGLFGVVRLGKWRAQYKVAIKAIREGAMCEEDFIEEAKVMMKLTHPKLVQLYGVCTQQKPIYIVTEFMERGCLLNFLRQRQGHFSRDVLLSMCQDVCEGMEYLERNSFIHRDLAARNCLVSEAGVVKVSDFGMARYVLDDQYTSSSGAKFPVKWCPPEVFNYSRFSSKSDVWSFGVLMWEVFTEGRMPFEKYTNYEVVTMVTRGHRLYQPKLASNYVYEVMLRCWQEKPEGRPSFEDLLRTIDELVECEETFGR
The data set is described as follows: scanMAX binding POC, TEC. The following applies: 1 μM.
Text: as §1, §2, §3, §4, §5, §6, §7, §8

For a further data set, the target named is BLK (Homo sapiens, UniProt P51451). The data set is described as follows: scanMAX binding POC, BLK. As to conditions: 1 μM.
The target of another data set is JNK2 (MAPK9) (Homo sapiens, UniProt P45984). Nature of the data set: scanMAX binding POC, JNK2. As to conditions: 1 μM.
For a further data set, the target named is ERBB3 (Homo sapiens, UniProt P21860). The data set is described as follows: scanMAX binding POC, ERBB3. As to conditions: 1 μM.
The target of the next data set is T4, ITK (Homo sapiens, UniProt Q08881).
T4 sequence (Q08881 1-620): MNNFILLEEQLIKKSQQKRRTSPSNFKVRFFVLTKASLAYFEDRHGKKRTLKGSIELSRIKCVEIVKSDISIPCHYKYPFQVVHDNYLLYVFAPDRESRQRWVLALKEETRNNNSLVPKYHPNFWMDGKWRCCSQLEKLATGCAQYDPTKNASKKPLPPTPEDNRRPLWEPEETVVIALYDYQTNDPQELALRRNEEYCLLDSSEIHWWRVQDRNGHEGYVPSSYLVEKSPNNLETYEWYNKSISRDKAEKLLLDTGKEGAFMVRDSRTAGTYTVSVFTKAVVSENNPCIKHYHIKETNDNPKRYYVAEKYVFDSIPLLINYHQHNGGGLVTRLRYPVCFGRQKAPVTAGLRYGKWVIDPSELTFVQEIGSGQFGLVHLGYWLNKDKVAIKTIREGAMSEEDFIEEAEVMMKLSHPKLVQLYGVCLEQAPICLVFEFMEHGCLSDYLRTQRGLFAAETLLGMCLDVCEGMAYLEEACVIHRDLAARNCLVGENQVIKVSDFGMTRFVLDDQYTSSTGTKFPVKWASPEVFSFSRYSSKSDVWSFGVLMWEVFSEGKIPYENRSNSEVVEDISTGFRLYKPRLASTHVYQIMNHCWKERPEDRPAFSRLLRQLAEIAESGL
The data set is described as follows: scanMAX binding POC, ITK. As to conditions: 1 μM.
Text: as §1, §2, §3, §4, §5, §6, §7, §8

For the next data set, the target named is EGFR (Homo sapiens, UniProt P00533). Nature of the data set: scanMAX binding POC, EGFR. The following applies: 1 μM.
In the next data set the target is BTK C481S. As to conditions: average of literature values; read-out: average published Kd for BTK C481S; cited from earlier work.
In another data set the target is T5, TXK (Homo sapiens, UniProt P42681).
T5 sequence (P42681 1-527): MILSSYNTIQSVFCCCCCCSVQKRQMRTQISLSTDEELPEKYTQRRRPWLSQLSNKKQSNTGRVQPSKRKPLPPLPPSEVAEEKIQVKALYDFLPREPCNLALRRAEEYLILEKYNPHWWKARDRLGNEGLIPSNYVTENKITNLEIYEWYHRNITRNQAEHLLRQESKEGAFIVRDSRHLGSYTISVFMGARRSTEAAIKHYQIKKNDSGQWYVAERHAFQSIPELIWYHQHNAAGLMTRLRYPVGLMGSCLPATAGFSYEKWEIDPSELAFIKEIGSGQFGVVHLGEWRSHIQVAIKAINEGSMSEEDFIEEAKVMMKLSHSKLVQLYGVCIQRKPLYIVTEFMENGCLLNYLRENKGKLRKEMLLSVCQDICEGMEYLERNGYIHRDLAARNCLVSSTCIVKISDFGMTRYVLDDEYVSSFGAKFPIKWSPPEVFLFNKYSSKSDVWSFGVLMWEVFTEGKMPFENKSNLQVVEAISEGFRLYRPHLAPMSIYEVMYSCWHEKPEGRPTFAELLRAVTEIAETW
Nature of the data set: scanMAX binding POC, TXK. The following applies: 1 μM.
Text: as §1, §2, §3, §4, §5, §6, §7, §8

In the next data set the target is JNK3 (MAPK10) (Homo sapiens, UniProt P53779). The data set is described as follows: scanMAX binding POC, JNK3. The following applies: 1 μM.
The target in a further data set is ERBB2 (Homo sapiens, UniProt P04626). Nature of the data set: scanMAX binding POC, ERBB2. As to conditions: 1 μM.
For a further data set, the target named is T6, MKK7 (Homo sapiens, UniProt O14733).
T6 sequence (O14733 1-419): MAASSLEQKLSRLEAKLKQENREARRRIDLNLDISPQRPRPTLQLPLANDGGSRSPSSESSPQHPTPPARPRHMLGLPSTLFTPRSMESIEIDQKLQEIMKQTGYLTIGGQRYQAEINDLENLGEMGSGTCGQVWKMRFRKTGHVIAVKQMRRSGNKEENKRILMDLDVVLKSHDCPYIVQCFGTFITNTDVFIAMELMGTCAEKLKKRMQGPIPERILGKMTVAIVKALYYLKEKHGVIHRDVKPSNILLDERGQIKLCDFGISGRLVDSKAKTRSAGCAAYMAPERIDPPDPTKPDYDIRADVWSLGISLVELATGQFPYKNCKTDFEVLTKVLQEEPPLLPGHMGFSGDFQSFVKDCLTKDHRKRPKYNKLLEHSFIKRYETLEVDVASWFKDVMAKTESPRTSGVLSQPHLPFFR
The data set is described as follows: scanMAX binding POC, MKK7. As to conditions: 1 μM.

Data set [3] deals with BTK. As to conditions: cited from earlier work.
The next data set deals with patients with CLL. Also noted: method as in NCT02477696. The following applies: phase III, P = 0.02, ref NCT02477696; cited from earlier work.
The test system of data set [4] is R/R PCNSL lymphoma patients. As to conditions: three-year follow-up; cited from earlier work.

Chain of BLK (P51451 whole entry): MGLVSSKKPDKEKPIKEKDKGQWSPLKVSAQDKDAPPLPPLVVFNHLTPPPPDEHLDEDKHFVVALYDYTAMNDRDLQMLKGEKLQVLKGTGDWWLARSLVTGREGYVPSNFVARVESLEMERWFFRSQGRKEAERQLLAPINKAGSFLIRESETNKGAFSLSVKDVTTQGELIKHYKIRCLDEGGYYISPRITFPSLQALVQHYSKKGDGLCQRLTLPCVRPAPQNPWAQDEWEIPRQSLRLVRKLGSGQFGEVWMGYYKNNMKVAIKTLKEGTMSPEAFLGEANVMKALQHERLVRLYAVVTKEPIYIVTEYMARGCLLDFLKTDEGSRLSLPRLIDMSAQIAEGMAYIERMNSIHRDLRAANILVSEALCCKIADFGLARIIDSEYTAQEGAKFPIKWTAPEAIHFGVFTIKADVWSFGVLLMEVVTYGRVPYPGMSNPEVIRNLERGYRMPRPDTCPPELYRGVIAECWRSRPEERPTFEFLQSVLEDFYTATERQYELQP
Chain of JNK1 (MAPK8) (P45983 whole entry, the tested form may be a part): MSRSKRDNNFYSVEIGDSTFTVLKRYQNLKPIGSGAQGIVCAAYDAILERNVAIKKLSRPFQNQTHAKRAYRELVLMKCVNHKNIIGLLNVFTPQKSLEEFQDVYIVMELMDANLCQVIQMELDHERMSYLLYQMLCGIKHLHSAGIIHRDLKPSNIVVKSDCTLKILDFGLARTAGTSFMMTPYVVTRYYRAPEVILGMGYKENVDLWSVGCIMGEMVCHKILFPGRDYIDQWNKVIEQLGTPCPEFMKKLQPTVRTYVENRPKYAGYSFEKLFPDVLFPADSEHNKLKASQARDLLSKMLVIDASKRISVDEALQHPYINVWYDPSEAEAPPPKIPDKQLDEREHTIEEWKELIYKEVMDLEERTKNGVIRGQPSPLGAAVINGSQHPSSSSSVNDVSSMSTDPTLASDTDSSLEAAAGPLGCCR
Chain of ERBB4 (Q15303 26-1308): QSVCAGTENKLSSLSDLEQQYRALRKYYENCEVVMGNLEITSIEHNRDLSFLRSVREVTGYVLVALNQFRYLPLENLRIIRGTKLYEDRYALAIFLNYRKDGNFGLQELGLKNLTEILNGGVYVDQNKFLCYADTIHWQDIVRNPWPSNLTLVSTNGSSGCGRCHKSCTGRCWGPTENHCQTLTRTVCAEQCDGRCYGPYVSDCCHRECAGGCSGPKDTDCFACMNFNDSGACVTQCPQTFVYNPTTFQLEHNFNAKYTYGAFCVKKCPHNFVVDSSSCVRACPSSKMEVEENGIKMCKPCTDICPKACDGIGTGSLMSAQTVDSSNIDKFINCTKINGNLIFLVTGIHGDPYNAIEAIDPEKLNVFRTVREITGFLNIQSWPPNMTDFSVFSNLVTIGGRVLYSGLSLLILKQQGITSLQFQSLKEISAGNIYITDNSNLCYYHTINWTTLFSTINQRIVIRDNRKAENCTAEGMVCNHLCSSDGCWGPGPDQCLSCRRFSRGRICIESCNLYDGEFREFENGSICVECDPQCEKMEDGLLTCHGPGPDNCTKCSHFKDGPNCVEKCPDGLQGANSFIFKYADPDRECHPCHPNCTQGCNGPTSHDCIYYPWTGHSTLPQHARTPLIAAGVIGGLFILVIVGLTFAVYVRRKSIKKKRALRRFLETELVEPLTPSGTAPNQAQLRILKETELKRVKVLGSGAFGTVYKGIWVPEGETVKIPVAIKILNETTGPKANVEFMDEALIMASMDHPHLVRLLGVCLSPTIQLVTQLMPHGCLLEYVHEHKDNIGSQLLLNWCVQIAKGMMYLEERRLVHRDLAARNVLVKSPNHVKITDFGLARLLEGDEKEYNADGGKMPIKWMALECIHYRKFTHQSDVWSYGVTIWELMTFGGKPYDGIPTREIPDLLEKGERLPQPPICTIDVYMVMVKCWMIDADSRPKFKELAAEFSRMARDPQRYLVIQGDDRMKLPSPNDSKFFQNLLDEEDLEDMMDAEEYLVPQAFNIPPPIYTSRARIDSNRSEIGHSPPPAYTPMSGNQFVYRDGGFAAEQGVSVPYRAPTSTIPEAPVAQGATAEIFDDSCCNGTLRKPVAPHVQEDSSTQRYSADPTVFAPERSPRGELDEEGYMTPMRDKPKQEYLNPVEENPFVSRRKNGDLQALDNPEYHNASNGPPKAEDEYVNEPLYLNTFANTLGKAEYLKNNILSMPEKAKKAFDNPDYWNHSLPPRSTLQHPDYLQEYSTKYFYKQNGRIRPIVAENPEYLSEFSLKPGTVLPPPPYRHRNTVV
Chain of ERBB2 (P04626 23-1255): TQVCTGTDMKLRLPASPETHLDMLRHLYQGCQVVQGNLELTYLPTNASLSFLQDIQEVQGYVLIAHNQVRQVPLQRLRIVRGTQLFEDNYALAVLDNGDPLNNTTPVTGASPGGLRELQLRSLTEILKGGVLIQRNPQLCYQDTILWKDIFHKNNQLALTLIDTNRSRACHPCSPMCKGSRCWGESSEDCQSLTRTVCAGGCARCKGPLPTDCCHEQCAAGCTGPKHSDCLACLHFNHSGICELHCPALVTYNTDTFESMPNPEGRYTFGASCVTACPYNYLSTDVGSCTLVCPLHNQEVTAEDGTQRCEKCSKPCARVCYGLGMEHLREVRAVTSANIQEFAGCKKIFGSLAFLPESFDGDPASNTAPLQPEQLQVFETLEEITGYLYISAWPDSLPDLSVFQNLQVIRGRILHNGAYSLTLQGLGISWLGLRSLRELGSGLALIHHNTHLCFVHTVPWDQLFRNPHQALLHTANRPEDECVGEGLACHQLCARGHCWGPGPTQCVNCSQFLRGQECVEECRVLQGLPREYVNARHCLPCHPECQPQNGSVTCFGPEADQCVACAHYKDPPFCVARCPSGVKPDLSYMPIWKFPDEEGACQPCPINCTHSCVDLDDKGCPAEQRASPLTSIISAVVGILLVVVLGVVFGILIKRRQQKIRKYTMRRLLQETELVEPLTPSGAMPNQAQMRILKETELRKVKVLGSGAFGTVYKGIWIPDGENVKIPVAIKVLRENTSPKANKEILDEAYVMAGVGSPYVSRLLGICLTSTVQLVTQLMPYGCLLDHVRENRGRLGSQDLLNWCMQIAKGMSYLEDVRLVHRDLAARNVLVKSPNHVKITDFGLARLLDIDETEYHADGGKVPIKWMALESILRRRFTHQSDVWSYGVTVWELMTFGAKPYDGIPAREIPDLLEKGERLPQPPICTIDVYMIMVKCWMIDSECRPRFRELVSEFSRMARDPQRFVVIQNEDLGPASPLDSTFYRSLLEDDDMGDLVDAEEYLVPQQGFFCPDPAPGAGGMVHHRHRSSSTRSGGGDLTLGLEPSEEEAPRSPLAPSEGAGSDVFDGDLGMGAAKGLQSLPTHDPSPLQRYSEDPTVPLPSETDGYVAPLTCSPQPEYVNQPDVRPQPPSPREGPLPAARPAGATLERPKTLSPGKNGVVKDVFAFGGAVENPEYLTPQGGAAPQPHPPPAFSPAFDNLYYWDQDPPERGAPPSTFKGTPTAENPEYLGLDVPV
Chain of ERBB3 (P21860 20-1342): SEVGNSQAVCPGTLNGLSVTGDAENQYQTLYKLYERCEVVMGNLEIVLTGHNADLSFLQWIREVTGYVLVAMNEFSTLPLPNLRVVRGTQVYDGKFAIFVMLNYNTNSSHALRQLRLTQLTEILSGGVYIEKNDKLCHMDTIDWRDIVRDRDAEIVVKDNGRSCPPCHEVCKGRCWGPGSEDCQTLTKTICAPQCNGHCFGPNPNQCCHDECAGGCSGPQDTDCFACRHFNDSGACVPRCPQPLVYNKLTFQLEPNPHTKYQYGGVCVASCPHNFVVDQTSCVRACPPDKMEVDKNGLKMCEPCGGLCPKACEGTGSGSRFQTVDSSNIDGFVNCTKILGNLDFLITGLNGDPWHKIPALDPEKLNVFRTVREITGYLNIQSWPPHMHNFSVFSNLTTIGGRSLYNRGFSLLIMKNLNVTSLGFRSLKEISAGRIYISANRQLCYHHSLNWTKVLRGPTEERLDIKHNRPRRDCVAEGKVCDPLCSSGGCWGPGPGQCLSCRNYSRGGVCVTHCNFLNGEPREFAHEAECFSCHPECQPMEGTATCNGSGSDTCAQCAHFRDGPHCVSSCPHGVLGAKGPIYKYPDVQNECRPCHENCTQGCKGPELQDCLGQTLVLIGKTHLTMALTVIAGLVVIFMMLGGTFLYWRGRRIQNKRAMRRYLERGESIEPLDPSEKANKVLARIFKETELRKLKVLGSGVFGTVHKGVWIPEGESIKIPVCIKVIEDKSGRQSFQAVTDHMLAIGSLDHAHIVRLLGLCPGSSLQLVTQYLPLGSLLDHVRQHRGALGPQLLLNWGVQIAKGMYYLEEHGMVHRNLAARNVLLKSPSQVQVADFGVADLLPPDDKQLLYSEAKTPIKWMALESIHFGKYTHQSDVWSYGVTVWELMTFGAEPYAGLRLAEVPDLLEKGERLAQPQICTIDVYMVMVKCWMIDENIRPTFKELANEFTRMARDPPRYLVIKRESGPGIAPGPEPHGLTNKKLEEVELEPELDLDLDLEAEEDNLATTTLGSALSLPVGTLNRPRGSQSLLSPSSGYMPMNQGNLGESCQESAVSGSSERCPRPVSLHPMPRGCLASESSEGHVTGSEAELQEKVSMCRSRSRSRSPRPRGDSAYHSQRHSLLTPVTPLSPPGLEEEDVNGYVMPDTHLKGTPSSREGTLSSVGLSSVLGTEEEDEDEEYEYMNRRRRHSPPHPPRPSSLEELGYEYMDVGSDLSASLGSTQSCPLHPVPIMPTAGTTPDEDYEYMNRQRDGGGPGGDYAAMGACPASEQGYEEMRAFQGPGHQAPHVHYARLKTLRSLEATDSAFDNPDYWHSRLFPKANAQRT
T1 sequence (P52333 822-1111 limits assumed): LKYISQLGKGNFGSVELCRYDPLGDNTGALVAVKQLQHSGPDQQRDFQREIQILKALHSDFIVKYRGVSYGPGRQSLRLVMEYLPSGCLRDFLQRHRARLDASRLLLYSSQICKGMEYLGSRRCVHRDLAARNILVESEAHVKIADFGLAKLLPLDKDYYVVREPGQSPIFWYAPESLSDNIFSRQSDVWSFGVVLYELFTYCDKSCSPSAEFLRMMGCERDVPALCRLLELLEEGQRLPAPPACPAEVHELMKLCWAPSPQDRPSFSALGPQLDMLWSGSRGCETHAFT

Take `CC#CC(=O)N1CCC[C@H]1c1nc(-c2ccc(C(=O)Nc3ccccn3)cc2)c2c(N)nccn12` [Acalabrutinib]: the “JNK1 (MAPK8) POC” value on JNK1 (MAPK8) was 93% of control. The “JAK3 binding POC” value in data set [1] is 80% of control. On ERBB4, the “ERBB4 binding POC” value is 6.9% of control. For the same molecule, the “BTK binding POC” value at BTK [2] is 0.2% of control. Moreover, on TEC, the “TEC binding POC” value is given as 14% of control. The “BLK binding POC” value at BLK is 57% of control. At JNK2 (MAPK9), the “JNK2 (MAPK9) POC” value is on record as 58% of control. The “ERBB3 binding POC” value on ERBB3 is listed as 64% of control. The “ITK binding POC” value on ITK is on record as 100% of control. Also, the “EGFR binding POC” value at EGFR is given as 61% of control. Also, the Kd at BTK C481S was 358 nM. At TXK, the “TXK binding POC” value is reported as 47% of control. Also, at JNK3 (MAPK10), the “JNK3 (MAPK10) POC” value is listed as 97% of control. Moreover, the “ERBB2 binding POC” value on ERBB2 was 4.7% of control. The “MKK7 binding POC” value at MKK7 is recorded as 75% of control. Further, the IC50 in the data set with BTK [3] was […]. Also, the adverse cardiovascular events with patients with CLL is 9.4%.

Take `CC#CC(=O)N1CC[C@@H](n2c(=O)n(-c3ccc(Oc4ccccc4)cc3)c3c(N)ncnc32)C1` [Tirabrutinib]: the “JNK1 (MAPK8) POC” value on JNK1 (MAPK8) is given as 99% of control. In addition, the “ERBB4 binding POC” value on ERBB4 is 85% of control. In addition, the “BTK binding POC” value at BTK [2] was 0.35% of control. In addition, the “TEC binding POC” value at TEC is 9.4% of control. In addition, the “BLK binding POC” value on BLK was 14% of control. Further, the “JNK2 (MAPK9) POC” value on JNK2 (MAPK9) is on record as 92% of control. In addition, the “ERBB3 binding POC” value at ERBB3 was 12% of control. The “EGFR binding POC” value at EGFR is given as 74% of control. In addition, on TXK, the “TXK binding POC” value was 14% of control. Further, the “JNK3 (MAPK10) POC” value at JNK3 (MAPK10) is […]. For the same molecule, the “ERBB2 binding POC” value on ERBB2 is given as 26% of control. Further, the overall response rate in [4] is 63.6%. Moreover, the “MKK7 binding POC” value at MKK7 is reported as 87% of control. For the same molecule, the IC50 in the data set on BTK [3] was […].
